According to PMC5681654, “Dual protein kinase and nucleoside kinase modulators for rationally designed polypharmacology” (Nature Communications, 2017):
Entries after “also recorded” stand apart in the source; their conditions may differ. Each block holds one compound with its values, some of them ahead of it.

Columns and labels:
dCK-C3S-S74E = dCK-C3S-S74E (Homo sapiens, UniProt P27707, C45S/C59S/C9S/S74E); assay: Isothermal titration calorimetry (ITC)
Experimental: ITC was used to evaluate the binding between dCK-C3S-S74E and the selected compounds. […] Purified dCK-C3S-S74E and the compounds were diluted in the ITC buffer containing 20 mM HEPES, pH 7.5, and 200 mM NaCl. Titrations were carried out on a MicroCal ITC200 microcalorimeter (GE Healthcare) at 25 °C using 16 or 24 injections of the titrant (1−3 mM compound in the syringe) into the analyte (100 or 300 μM protein in the cell). A first small injection (0.2 μl) was included in the titration protocol in order to remove air bubbles trapped in the syringe prior titration. Because of the low solubility of several ligands, sequential titrations were employed to achieve sufficient molar ratios for reliable model fitting, and these titrations were linked together prior to data analysis using ConCat32 software (Microcal). Raw data were scaled after setting the zero to the titration saturation heat value.

recombinant human dCK = recombinant human dCK (Homo sapiens, UniProt P27707); assay: dCK kinetic assay (PK/LDH coupled, UTP as phosphate donor); settings: for effect on dCK enzymatic phosphorylation of gemcitabine: Supplementary Fig. 8; for effect on nucleoside phosphorylation by dCK: substrates 2′dC and gemcitabine, UTP, inhibitor/protein ratio 22
Sequence of recombinant human dCK (P27707 whole entry): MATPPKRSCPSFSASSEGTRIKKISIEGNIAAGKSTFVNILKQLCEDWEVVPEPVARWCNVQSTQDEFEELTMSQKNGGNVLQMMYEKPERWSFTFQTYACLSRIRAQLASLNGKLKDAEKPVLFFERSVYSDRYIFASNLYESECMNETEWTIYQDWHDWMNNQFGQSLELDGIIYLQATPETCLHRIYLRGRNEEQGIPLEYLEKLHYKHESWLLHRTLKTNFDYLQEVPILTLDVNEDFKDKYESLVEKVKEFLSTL
Experimental: Kinetic analyses were performed using a spectrophotometric continuous enzymatic-coupled assay using pyruvate kinase (PK) and lactate dehydrogenase (LDH). […] All measurements were performed on a BMG Labtech Pherastar FS apparatus. All assays were performed in triplicate and each experiment was performed at least twice. The data are presented as mean ± s.d. The results were plotted as kinetics and the velocity was determined for each condition as the slope of the linear range of the curve. […] K m (Michaelis−Menten constant) and V max (maximal velocity) values were determined using PRISM software (GraphPad Software Inc.) by fitting the experimental data according to the Michaelis−Menten approximation defined as Equation 1.1 V=Vmax⋅S∕Km+S

[1] = tested on: HRT18 (colon) cancer cell line; assay: Cell proliferation assay (CellTiter-Blue), HRT18; format: cell-based, human
Experimental: (§1) At the end of incubation, 10 µl of CellTiter-Blue Reagent were added to each well. The absorbance was read at 590 nm. The effect of the drugs on cells was expressed as a percentage of proliferation compared to untreated cells. […] Drug synergy effects were analysed using Combenefit (Cancer Research Cambridge Institute), a software tool that enables the visualisation, analysis and quantification of drug combination effects[49]. The data from combination treatments were processed using three synergy reference models: highest single agent (HSA) model, Loewe additivity model and Bliss independence model for HRT18 and LnCAP cell lines.

[2] = biological target: biotinylated dCK-C3S-S74E (Homo sapiens, UniProt P27707, C45S/C59S/C9S/S74E); assay: Bio-layer interferometry kinetics, immobilised biotinylated dCK
Sequence of biotinylated dCK-C3S-S74E (P27707 whole entry C9S/C45S/C59S/S74E): as the sequence (P27707 whole entry) above, with C9S, C45S, C59S, S74E counted along it
Experimental: BLI measurements were carried out using an Octet RED96 instrument (ForteBio). Biotinylated dCK was immobilised on SSA biosensors at a concentration of 5 μM after 1200 s. Free streptavidin sites were blocked by incubating with 10 μg ml^−1 biocytin (Sigma-Aldrich) for 100 s and 1% BSA for 1000 s. A control set of SSA biosensors were prepared in parallel by blocking the surface with biocytin instead of protein. A three-point concentration series were prepared for each compound and were measured using 60 s association and 140 s dissociation steps at 30 °C with a shake speed of 1000 r.p.m. All measurements were performed in binding buffer containing 20 mM HEPES, pH 7.5, 200 mM NaCl, 0.1% BSA and 1% DMSO. Each experiment was performed at least twice and K D, k on and k off values were determined using the global fitting procedure in the ForteBio Data Analysis Software.

[3] = tested on: LNCaP (prostate) cancer cell line; assay: Cell proliferation assay (CellTiter-Blue), LNCaP; format: cell-based, human
Experimental: as §1

[4] = tested on: CHO cells (constitutive dCK); assay: Cell proliferation assay (CellTiter-Blue), CHO; format: cell-based, Chinese hamster; settings: gemcitabine 0−1 µM, 5 days
Experimental: as §1

[5] = tested on: CHO dCK Rescue cells (partially reconstituted dCK); assay: Cell proliferation assay (CellTiter-Blue), CHO dCK Rescue; format: cell-based, Chinese hamster; settings: CHO dCK Rescue (low dCK expression); gemcitabine 0−1 µM; 5 days
Experimental: At the end of incubation, 10 µl of CellTiter-Blue Reagent were added to each well. The absorbance was read at 590 nm. The effect of the drugs on cells was expressed as a percentage of proliferation compared to untreated cells.
CHO dCK deficient cells (CHO dCK-) were plated in 96-well plates at a density of 5000 cells per well and incubated overnight. The cells were transfected with the pMSCV insert free (vector control) and pMSCV-dCK respectively, using FuGENE 6 Transfection Reagent (Promega) according to manufacturer recommendations. Two days after transfection, cells were plated in 6-well plates and selected in 1 mg ml^-1 Geniticin-G418 (Gibco) for 2 weeks. The positive clones were picked and expanded to establish cell lines. The stable transfection cell clones, named as CHO dCK Rescue, were controlled by western blot analysis for dCK expression levels.

[6] = tested on: CHO dCK- cells (deficient dCK); assay: Cell proliferation assay (CellTiter-Blue), CHO dCK-; format: cell-based, Chinese hamster; settings: gemcitabine 0−1 µM, 5 days
Experimental: as §1

[7] = tested on: A549 (lung) cancer cell line; assay: Cell proliferation assay (CellTiter-Blue), A549; format: cell-based, human; settings: gemcitabine 0−100 µM or masitinib 0−10 µM alone, 5 days
Experimental: as §1

[8] = biological target: T1, uridine-cytidine kinase 1 (UCK1) (Homo sapiens, UniProt Q9HA47); assay: UCK1 kinetic assay (PK/LDH coupled, ATP as phosphate donor); format: biochemical; settings: masitinib/protein ratios 0, 1, 10, 100
T1 construct: made in house; host or cells: E. coli BL21 DE3
T1 sequence (Q9HA47 1-277): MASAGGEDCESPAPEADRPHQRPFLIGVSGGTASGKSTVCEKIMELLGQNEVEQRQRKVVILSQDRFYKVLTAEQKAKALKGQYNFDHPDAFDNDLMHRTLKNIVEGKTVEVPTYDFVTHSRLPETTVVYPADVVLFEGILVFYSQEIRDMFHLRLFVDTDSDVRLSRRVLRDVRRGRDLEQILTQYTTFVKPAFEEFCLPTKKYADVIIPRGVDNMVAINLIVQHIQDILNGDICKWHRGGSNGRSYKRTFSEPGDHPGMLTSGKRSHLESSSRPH
Experimental: Kinetic analyses were performed using a spectrophotometric continuous enzymatic-coupled assay using pyruvate kinase (PK) and lactate dehydrogenase (LDH). […] . […] All assays were performed in triplicate and each experiment was performed at least twice. The data are presented as mean ± s.d. The results were plotted as kinetics and the velocity was determined for each condition as the slope of the linear range of the curve. […] . K m (Michaelis−Menten constant) and V max (maximal velocity) values were determined using PRISM software (GraphPad Software Inc.) by fitting the experimental data according to the Michaelis−Menten approximation defined as Equation 1.1 V=Vmax⋅S∕Km+S

thymidine kinase (TK1) = biological target: T2, thymidine kinase (TK1) (Homo sapiens, UniProt P04183); assay: TK1 kinetic assay (HTRF Transcreener ADP assay); settings: masitinib/protein ratios 1, 5, 10, 20, 40
T2 sequence (P04183 2-234 limits assumed): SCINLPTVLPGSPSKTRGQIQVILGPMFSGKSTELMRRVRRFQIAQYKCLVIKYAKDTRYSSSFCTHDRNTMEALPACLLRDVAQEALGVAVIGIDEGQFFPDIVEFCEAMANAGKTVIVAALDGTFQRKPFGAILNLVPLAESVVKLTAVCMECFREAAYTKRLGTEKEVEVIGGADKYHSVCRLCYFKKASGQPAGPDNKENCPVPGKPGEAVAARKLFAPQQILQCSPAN
Experimental: ADP and ADP-d2 compete for the binding to a monoclonal anti-ADP antibody labelled with Europium (Eu^3+) cryptate. […] The obtained signal is inversely proportional to the concentration of ADP in the sample. All measurements were performed on a BMG Labtech Pherastar FS apparatus.

Sequence of dCK-C3S-S74E (P27707 whole entry C9S/C45S/C59S/S74E): as the sequence (P27707 whole entry) above, with C9S, C45S, C59S, S74E counted along it

Kd (dCK-C3S-S74E): 31 ± 5.4 µM
Compound: Nc1ncn([C@H]2C[C@H](O)[C@@H](CO)O2)c(=O)n1 [Decitabine, decitabine]

Compound: CNC(=O)c1ccccc1Sc1ccc2c(/C=C/c3ccccn3)n[nH]c2c1 [axitinib]
effect on dCK enzymatic phosphorylation of gemcitabine (recombinant human dCK): none of the compounds showed an activation effect

effect on nucleoside phosphorylation by dCK (recombinant human dCK): most active
Compound: Cc1ccc(NC(=O)c2ccc(CN3CC[C@H](N(C)C)C3)c(C(F)(F)F)c2)cc1Nc1nccc(-c2cncnc2)n1 [bafetinib]

effect on nucleoside phosphorylation by dCK (recombinant human dCK): most active
Compound: COc1cc(Nc2c(C#N)cnc3cc(OCCCN4CCN(C)CC4)c(OC)cc23)c(Cl)cc1Cl [bosutinib]

Compound: C#Cc1cccc(Nc2ncnc3cc(OCCOC)c(OCCOC)cc23)c1 [erlotinib]
effect on dCK enzymatic phosphorylation of gemcitabine (recombinant human dCK): none of the compounds showed an activation effect

BLI signal for substrate binding [2]: could not detect any signal | Kd (dCK-C3S-S74E): 22.2 µM
Compound: Nc1ccn([C@@H]2O[C@H](CO)[C@@H](O)C2(F)F)c(=O)n1 [gemcitabine]
anti-proliferative effect, single agent ([1]; gemcitabine 0−100 µM or masitinib 0−10 µM alone, 5 days): could not induce strong anti-proliferative effects | anti-proliferative effect, single agent ([3]; LNCaP, gemcitabine 0−100 µM or masitinib 0−10 µM alone, 5 days): could not induce strong anti-proliferative effects | sensitivity to gemcitabine [4]: strong sensitivity to gemcitabine | sensitivity to gemcitabine [5]: restored the capacity of CHO cells to respond to gemcitabine treatment | sensitivity to gemcitabine [6]: did not show any anti-proliferative effect | anti-proliferative effect, single agent [7]: could not induce strong anti-proliferative effects

Compound: Cc1ccc(NC(=O)c2ccc(CN3CCN(C)CC3)cc2)cc1Nc1nc(-c2cccnc2)cs1 [masitinib]
drug synergy with gemcitabine (Combenefit: HSA, Loewe, Bliss models) [1]: synergetic effect | drug synergy with gemcitabine (Combenefit: HSA, Loewe, Bliss models) ([3]; LnCAP): synergetic effect | modulation of UCK1 enzymatic activity [8]: didn’t produce an enzymatic modulation; also recorded: did not observe an enzymatic activation | modulation of TK1 enzymatic activity (thymidine kinase (TK1)): didn’t produce an enzymatic modulation; also recorded: did not observe an enzymatic activation

Compound: CN[C@@H]1C[C@H]2O[C@@](C)([C@@H]1OC)n1c3ccccc3c3c4c(c5c6ccccc6n2c5c31)C(=O)NC4 [staurosporine]
effect on dCK enzymatic phosphorylation of gemcitabine (recombinant human dCK): none of the compounds showed an activation effect

effect on nucleoside phosphorylation by dCK (recombinant human dCK): most active
Compound: Cc1cc(Nc2cc(N3CCN(C)CC3)nc(Sc3ccc(NC(=O)C4CC4)cc3)n2)[nH]n1 [tozasertib]
